Measured values reported in patent publication US7211576B2, “Diaminothiazoles” (Hoffmann-La Roche Inc., priority 2004, dated 2007).
Read-outs that look alike come from different tables or passages of the source.

Columns and labels:
human cyclin D1-CDK4 = human cyclin D1-CDK4 (Homo sapiens, UniProt P11802); assay: FlashPlate kinase assay, cyclin D1-CDK4; format: biochemical
Method: To determine inhibition of Cdk4, Cdk2 and Cdk1 activity, kinase assays were conducted using FlashPlate™ assays (NEN™-Life Science Products). FlashPlate assays were performed using recombinant human cyclin B-CDK1, human cyclin E-CDK2 or human cyclin D1-CDK4 complexes. GST-cyclinE (GST-cycE), CDK2, GST-cyclinB (GST-cycB), CDK1, GST-CDK4 and cyclin D1 (cycD1) cDNA clones in baculovirus vectors were provided by Dr. W. Harper at the Baylor College of Medicine, Houston, Tex.
(§1) The expression of the 62Kd protein was under the control of an IPTG inducible promoter in an M15 E. coli strain. Cells were lysed by sonication and purification was carried out by binding lysates at pH 8.0 to a Ni-chelated agarose column pretreated with 1 mM imidazole. The resin was then washed several times with incrementally decreasing pH buffers to pH 6.0, and eluted with 500 mM imidazole. Eluted protein was dialysed against 20 mM HEPES pH 7.5, 30% glycerol, 200 mM NaCl, and 1 mM DTT. Purified Rb fusion protein stocks were quantitated for protein concentration, aliquoted, and stored at −70° C.
(§2) For all three kinase assays reported herein, 96-well FlashPlates were coated with Rb protein at 10 μg/ml, using 100 μl per well. Plates were incubated at 4° C. overnight or at room temperature for 3 hours on a shaker. To control for nonspecific phosphorylation, one row of wells was coated with 100 μl/well coating buffer (20 mM HEPES, 0.2 M NaCl). Plates were then washed twice with wash buffer (0.01% Tween 20 in phosphate-buffered saline). Compounds to be tested (“test compounds”) were added to the wells at 5× final concentration. Reactions were initiated by immediate addition of 40 μl reaction mix (25 mM HEPES, 20 mM MgCl2, 0.002% Tween 20, 2 mM DTT, 1 μM ATP, 4 nM ^33P-ATP) and a sufficient amount of enzyme to give counts that were at least 10-fold above background. Plates were incubated at room temperature on a shaker for 30 minutes. Plates were washed four times with the wash buffer, sealed, and counted on the TopCount scintillation counter (Packard Instrument Co., Downers Grove, Ill.]. The percent inhibition of Rb phosphorylation, which is a measure of the inhibition of CDK activity, was determined according to the following formula:
[formula] where “test compound” refers to the average counts per minute of the test duplicates, “nonspecific” refers to the average counts per minute when no CyclinD/Cdk4, etc., was added, and “total” refers to the average counts per minute when no compound was added.

human cyclin B-CDK1 = human cyclin B-CDK1 (Homo sapiens, UniProt P06493); assay: FlashPlate kinase assay, cyclin B-CDK1; format: biochemical; conditions: Rb protein substrate, 1 μM ATP, 33P-ATP, 30 minutes room temperature
Method: To determine inhibition of Cdk4, Cdk2 and Cdk1 activity, kinase assays were conducted using FlashPlate™ assays (NEN™-Life Science Products). FlashPlate assays were performed using recombinant human cyclin B-CDK1, human cyclin E-CDK2 or human cyclin D1-CDK4 complexes. GST-cyclinE (GST-cycE), CDK2, GST-cyclinB (GST-cycB), CDK1, GST-CDK4 and cyclin D1 (cycD1) cDNA clones in baculovirus vectors were provided by Dr. W. Harper at the Baylor College of Medicine, Houston, Tex. Proteins were co-expressed in High Five™ insect cells and the complex was purified on glutathione Sepharose resin (Pharmacia, Piscataway, N.J.) as previously described (Harper, J. W. et al. Cell 1993, 75, 805–816). A 6×-Histidine tagged truncated form of retinoblastoma (Rb) protein (amino acid 386–928) was used as the substrate for the cycD1-CDK4, cycB-CDK1 and the cycE-CDK2 assays (the expression plasmid was provided by Dr. Veronica Sullivan, Department of Molecular Virology, Roche Research Centre, Welwyn Garden City, United Kingdom). The Rb protein is a natural substrate for phosphorylation by CDK4, CDK2 and CDK1 (see Herwig and Strauss Eur. J. Biochem. Vol. 246 (1997) pp. 581–601 and the references cited therein).
as §1, §2
[formula] where “test compound” refers to the average counts per minute of the test duplicates, “nonspecific” refers to the average counts per minute when no CyclinD/Cdk4, etc., was added, and “total” refers to the average counts per minute when no compound was added. The IC50 value is the concentration of test compound that reduces by 50% the protein-kinase induced incorporation of the radiolabel under the test conditions described.

[1] = Rb protein substrate, 1 μM ATP, 33P-ATP, 30 minutes room temperature, read-out: CDK4 IC50

human cyclin B-CDK1, sequence (P06493 whole entry): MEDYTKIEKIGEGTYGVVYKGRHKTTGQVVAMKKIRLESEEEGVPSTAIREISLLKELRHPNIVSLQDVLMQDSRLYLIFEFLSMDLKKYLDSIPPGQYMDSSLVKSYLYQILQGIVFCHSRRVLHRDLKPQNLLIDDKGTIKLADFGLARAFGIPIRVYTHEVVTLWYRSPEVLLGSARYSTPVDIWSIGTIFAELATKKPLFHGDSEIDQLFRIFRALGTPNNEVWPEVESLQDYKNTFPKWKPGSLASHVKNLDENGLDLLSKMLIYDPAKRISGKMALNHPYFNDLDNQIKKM
human cyclin B-CDK1, sequence (P14635 whole entry partner): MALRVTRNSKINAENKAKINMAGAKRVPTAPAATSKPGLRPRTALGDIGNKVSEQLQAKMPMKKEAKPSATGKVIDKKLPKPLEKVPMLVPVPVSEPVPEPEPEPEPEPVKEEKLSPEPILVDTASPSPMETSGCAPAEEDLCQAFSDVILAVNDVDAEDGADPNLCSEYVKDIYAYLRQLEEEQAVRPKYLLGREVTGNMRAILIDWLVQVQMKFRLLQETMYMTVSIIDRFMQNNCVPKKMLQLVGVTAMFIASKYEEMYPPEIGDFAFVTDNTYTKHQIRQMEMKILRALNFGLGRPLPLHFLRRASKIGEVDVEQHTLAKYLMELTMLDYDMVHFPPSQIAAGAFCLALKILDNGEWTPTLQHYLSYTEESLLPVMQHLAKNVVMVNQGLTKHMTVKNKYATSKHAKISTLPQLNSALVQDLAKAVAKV
human cyclin D1-CDK4, sequence (P11802 whole entry): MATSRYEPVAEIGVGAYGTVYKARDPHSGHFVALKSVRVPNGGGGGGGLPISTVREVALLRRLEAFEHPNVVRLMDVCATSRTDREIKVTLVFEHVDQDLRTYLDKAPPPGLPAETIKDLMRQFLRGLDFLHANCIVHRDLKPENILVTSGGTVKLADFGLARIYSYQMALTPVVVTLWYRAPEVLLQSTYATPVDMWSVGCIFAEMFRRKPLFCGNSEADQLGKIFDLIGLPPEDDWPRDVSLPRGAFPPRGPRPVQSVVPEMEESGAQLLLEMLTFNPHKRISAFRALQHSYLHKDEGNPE
human cyclin D1-CDK4, sequence (P24385 whole entry partner): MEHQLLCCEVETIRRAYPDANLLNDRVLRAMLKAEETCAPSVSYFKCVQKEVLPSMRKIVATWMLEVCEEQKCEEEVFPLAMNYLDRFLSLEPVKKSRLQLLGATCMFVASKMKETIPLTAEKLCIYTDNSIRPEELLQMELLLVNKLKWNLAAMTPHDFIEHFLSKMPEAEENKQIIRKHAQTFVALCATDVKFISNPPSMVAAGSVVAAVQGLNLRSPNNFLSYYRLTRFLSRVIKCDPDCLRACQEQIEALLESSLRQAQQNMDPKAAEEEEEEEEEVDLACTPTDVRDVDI

With `CN(C)C1CCN(c2ccc(Nc3nc(N)c(C(=O)c4ccc(C#N)cc4)s3)cc2)CC1` [Example 47, 4-{4-Amino-2-[4-(4-dimethylamino-piperidin-1-yl)-phenylamino]-thiazole-5-carbonyl}-benzonitrile] as the compound, how does the IC50 (human cyclin D1-CDK4; [1]) read?
The IC50 was 186 nM.

How did the IC50 (human cyclin D1-CDK4; [1]) turn out when `CN(C)C1CCN(c2ccc(Nc3nc(N)c(C(=O)c4ccc([N+](=O)[O-])cc4)s3)cc2)CC1` [Example 48, {4-Amino-2-[4-(4-dimethylamino-piperidin-1-yl)-phenylamino]-thiazol-5-yl}-(4-nitro-phenyl)-methanone] was run?
The IC50 was 74 nM.

For `N#Cc1ccc(C(=O)c2sc(Nc3ccc(N4CCC(N5CCCC(O)C5)CC4)cc3)nc2N)cc1` (stereo not shown) [Example 51, 4-{4-Amino-2-[4-(3-hydroxy-[1,4′]bipiperidinyl-1′-yl)-phenylamino]-thiazole-5-carbonyl}-benzonitrile], which IC50 (human cyclin D1-CDK4; [1]) is on record?
Its IC50 is 230 nM.

`Nc1nc(Nc2ccc(N3CCC(N4CCCC(O)C4)CC3)cc2)sc1C(=O)c1ccc([N+](=O)[O-])cc1` (stereo not shown) [Example 52, {4-Amino-2-[4-(3-hydroxy-[1,4′]bipiperidinyl-1′-yl)-phenylamino]-thiazol-5-yl}-(4-nitro-phenyl)-methanone] was tested. Which IC50 (human cyclin D1-CDK4; [1]) did it give?
The IC50 was 71 nM.

For `Nc1nc(Nc2ccc(N3CCC(N4CCCC4)CC3)cc2)sc1C(=O)c1ccc([N+](=O)[O-])cc1` [Example 53, {4-Amino-2-[4-(4-pyrrolidin-1-yl-piperidin-1-yl)-phenylamino]-thiazol-5-yl}-(4-nitro-phenyl)-methanone], which IC50 (human cyclin D1-CDK4; [1]) is on record?
The IC50 was 96 nM.

Which IC50 (human cyclin D1-CDK4; [1]) does the source give for `N#Cc1ccc(C(=O)c2sc(Nc3ccc(N4CCC(N5CCCC5)CC4)cc3)nc2N)cc1` [Example 54, 4-{4-Amino-2-[4-(4-pyrrolidin-1-yl-piperidin-1-yl)-phenylamino]-thiazole-5-carbonyl}-benzonitrile] here?
Its IC50 is 212 nM.

How did the IC50 (human cyclin D1-CDK4; [1]) turn out when `N#Cc1ccc(C(=O)c2sc(Nc3ccc(N4CCC(N5CCCCC5)CC4)cc3)nc2N)cc1` [Example 55, 4-[4-Amino-2-(4-[1,4′]bipiperidinyl-1′-yl-phenylamino)-thiazole-5-carbonyl]-benzonitrile] was run?
The IC50 was 370 nM.

Which IC50 (human cyclin D1-CDK4; [1]) does the source give for `Nc1nc(Nc2ccc(N3CCC(N4CCCCC4)CC3)cc2)sc1C(=O)c1ccc([N+](=O)[O-])cc1` [Example 56, [4-Amino-2-(4-[1,4′]bipiperidinyl-1′-yl-phenylamino)-thiazol-5-yl]-(4-nitro-phenyl)-methanone] here?
The IC50 was 160 nM.

And the IC50 (human cyclin B-CDK1)?
The IC50 was 4.77 µM.

With `Nc1nc(Nc2ccc(N3CCC(N4CCCCC4)CC3)cc2)sc1C(=O)c1ccc(Cl)cc1` [Example 58, [4-Amino-2-(4-[1,4′]bipiperidinyl-1′-yl-phenylamino)-thiazol-5-yl]-(4-chloro-phenyl)-methanone] as the compound, how does the IC50 (human cyclin D1-CDK4; [1]) read?
The IC50 was 45 nM.

Which IC50 (human cyclin D1-CDK4; [1]) does the source give for `Nc1nc(Nc2ccc(N3CCC(N4CCCCC4)CC3)cc2)sc1C(=O)c1ccc(Cl)c(Cl)c1` [Example 60, [4-Amino-2-(4-[1,4′]bipiperidinyl-1′-yl-phenylamino)-thiazol-5-yl]-(3,4-dichloro-phenyl)-methanone] here?
Its IC50 is 90 nM.

And the IC50 (human cyclin B-CDK1)?
The IC50 was 5.77 µM.

`Nc1nc(Nc2ccc(N3CCC(N4CCCCC4)CC3)cc2)sc1C(=O)c1ccc(F)cc1` [Example 61, [4-Amino-2-(4-[1,4′]bipiperidinyl-1′-yl-phenylamino)-thiazol-5-yl]-(4-fluoro-phenyl)-methanone] was tested. Which IC50 (human cyclin D1-CDK4; [1]) did it give?
Its IC50 is 71 nM.

Which IC50 (human cyclin D1-CDK4; [1]) does the source give for `Nc1nc(Nc2ccc(N3CCC(N4CCCCC4)CC3)cc2)sc1C(=O)c1ccc(C(=O)O)cc1` [Example 63] here?
The IC50 was 320 nM.

Which IC50 (human cyclin D1-CDK4; [1]) does the source give for `Nc1nc(Nc2ccc(N3CCC(N4CCCC4)CC3)cc2)sc1C(=O)c1cc(F)cc(F)c1` [Example 66, {4-Amino-2-[4-(4-pyrrolidin-1-yl-piperidin-1-yl)-phenylamino]-thiazol-5-yl}-(3,5-difluoro-phenyl)-methanone] here?
The IC50 was 76 nM.

What about the IC50 (human cyclin B-CDK1) of the same compound?
Its IC50 is 4.02 µM.

Which IC50 (human cyclin D1-CDK4; [1]) does the source give for `Nc1nc(Nc2ccc(N3CCC(N4CCCC4)CC3)cc2)sc1C(=O)c1ccc(Cl)cc1` [Example 67, {4-Amino-2-[4-(4-pyrrolidin-1-yl-piperidin-1-yl)-phenylamino]-thiazol-5-yl}-(4-chloro-phenyl)-methanone] here?
Its IC50 is 170 nM.

How did the IC50 (human cyclin D1-CDK4; [1]) turn out when `Nc1nc(Nc2ccc(N3CCC(N4CCCC4)CC3)cc2)sc1C(=O)c1ccc(F)cc1` [Example 70, {4-Amino-2-[4-(4-pyrrolidin-1-yl-piperidin-1-yl)-phenylamino]-thiazol-5-yl}-(4-fluoro-phenyl)-methanone] was run?
Its IC50 is 186 nM.

Which IC50 (human cyclin D1-CDK4; [1]) does the source give for `Nc1nc(Nc2ccc(N3CCC(N4CCCC(O)C4)CC3)cc2)sc1C(=O)c1ccc(Cl)cc1` (stereo not shown) [Example 74, {4-Amino-2-[4-(3-hydroxy-[1,4′]bipiperidinyl-1′-yl)-phenylamino]-thiazol-5-yl}-(4-chloro-phenyl)-methanone] here?
Its IC50 is 62 nM.

With `Nc1nc(Nc2ccc(N3CCC(N4CCCC(O)C4)CC3)cc2)sc1C(=O)c1ccc(F)cc1` (stereo not shown) [Example 77, {4-Amino-2-[4-(3-hydroxy-[1,4′]bipiperidinyl-1′-yl)-phenylamino]-thiazol-5-yl}-(4-fluoro-phenyl)-methanone] as the compound, how does the IC50 (human cyclin D1-CDK4; [1]) read?
The IC50 was 111 nM.

With `Nc1nc(Nc2ccc(N3CCC(N4CCCC(O)C4)CC3)cc2)sc1C(=O)c1ccc(C(=O)O)cc1` (stereo not shown) [Example 79, 4-{4-Amino-2-[4-(3-hydroxy-[1,4′]bipiperidinyl-1′-yl)-phenylamino]-thiazole-5-carbonyl}-benzoic acid] as the compound, how does the IC50 (human cyclin D1-CDK4; [1]) read?
The IC50 was 400 nM.

How did the IC50 (human cyclin D1-CDK4; [1]) turn out when `CN(C)C1CCN(c2ccc(Nc3nc(N)c(C(=O)c4ccc(Cl)cc4)s3)cc2)CC1` [Example 83, {4-Amino-2-[4-(4-dimethylamino-piperidin-1-yl)-phenylamino]-thiazol-5-yl}-(4-chloro-phenyl)-methanone] was run?
Its IC50 is 132 nM.

How did the IC50 (human cyclin D1-CDK4; [1]) turn out when `CN(C)C1CCN(c2ccc(Nc3nc(N)c(C(=O)c4ccc(F)cc4)s3)cc2)CC1` [Example 86, {4-Amino-2-[4-(4-dimethylamino-piperidin-1-yl)-phenylamino]-thiazol-5-yl}-(4-fluoro-phenyl)-methanone] was run?
Its IC50 is 114 nM.

For `CN(C)C1CCN(c2ccc(Nc3nc(N)c(C(=O)c4ccc(O)c(C(N)=O)c4)s3)cc2)CC1` [Example 93, 5-{4-Amino-2-[4-(4-dimethylamino-piperidin-1-yl)-phenylamino]-thiazole-5-carbonyl}-2-hydroxy-benzamide], which IC50 (human cyclin D1-CDK4; [1]) is on record?
The IC50 was 677 nM.

Which IC50 (human cyclin D1-CDK4; [1]) does the source give for `NC(=O)c1cc(C(=O)c2sc(Nc3ccc(N4CCC(N5CCCC5)CC4)cc3)nc2N)ccc1O` [Example 94, 5-{4-Amino-2-[4-(4-pyrrolidin-1-yl-piperidin-1-yl)-phenylamino]-thiazole-5-carbonyl}-2-hydroxy-benzamide] here?
Its IC50 is 390 nM.

What does the source list for `Nc1nc(Nc2ccc(N3CCC(N4CCOCC4)CC3)cc2)sc1C(=O)c1ccc2c(c1)OCCO2` [Example 98, {4-Amino-2-[4-(4-morpholin-4-yl-piperidin-1-yl)-phenylamino]-thiazol-5-yl}-(2,3-dihydro-benzo[1,4]dioxin-6-yl)-methanone]?
IC50 (human cyclin D1-CDK4; [1]): 39 nM; IC50 (human cyclin B-CDK1): 2.7 µM

What does the source list for `COc1ccc(C(=O)c2sc(Nc3ccc(N4CCC(N5CCOCC5)CC4)cc3)nc2N)cc1F` [Example 100, {4-Amino-2-[4-(4-morpholin-4-yl-piperidin-1-yl)-phenylamino]-thiazol-5-yl}-(3-fluoro-4-methoxy-phenyl)-methanone]?
IC50 (human cyclin D1-CDK4): 90 nM; IC50 (human cyclin B-CDK1): 4.17 µM

What does the source list for `Nc1nc(Nc2ccc(N3CCC(N4CCOCC4)CC3)cc2)sc1C(=O)c1ccc2c(c1)OCO2` [Example 101, {4-Amino-2-[4-(4-morpholin-4-yl-piperidin-1-yl)-phenylamino]-thiazol-5-yl}-benzo[1,3]dioxol-5-yl-methanone]?
IC50 (human cyclin D1-CDK4; [1]): 25 nM; IC50 (human cyclin B-CDK1): 0.58 µM
